Source: ChEMBL document CHEMBL1201862, “PubChem BioAssay data set” (2004)
One block for each compound: values may come before it. Activity calls are given as the source filed them.

Columns and labels:
[1] = target: Voltage-dependent T-type calcium channel subunit alpha-1H (Homo sapiens, UniProt O95180); format: functional;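 also: channel activity triggered by adding a high calcium stimulation buffer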
[2] = target: Ubiquitin carboxyl-terminal hydrolase BAP1 (Homo sapiens, UniProt Q92560); assay: inhibition of BAP1 ubiquitin hydrolase activity – biochemical, dose response (AID 714); format: functional
[3] = target: Lytic switch protein BZLF1 (Epstein-Barr virus (strain B95-8) (HHV-4) (Human herpesvirus 4), UniProt P03206); assay: inhibition of BZLF1 ZTA DNA binding – biochemical, fluorescence polarization, Epstein-Barr virus, 1536-well, counter-screen for EBNA-1 inhibitor project, dose response (AID 2377); parameters: species or system human gammaherpesvirus 4;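 also: fluorescence polarization of Cy5-labelled ZRE DNA probe bound by purified Zta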
[4] = target: Epstein-Barr nuclear antigen 1 (Epstein-Barr virus (strain B95-8) (HHV-4) (Human herpesvirus 4), UniProt P03211); assay: inhibition of EBV nuclear antigen 1 DNA binding – biochemical, fluorescence polarization, 1536-well, dose response (AID 2381); parameters: species or system human gammaherpesvirus 4;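 also: fluorescence polarization of a Cy5 DNA probe bound by EBNA-1 protein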
Genome polyprotein = Genome polyprotein (Hepatitis C virus, UniProt Q2Q167); assay: disruption of hepatitis C core self-association – biochemical, TR-FRET, dose response (AID 2159); parameters: species or system Hepacivirus hominis;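 also: blocks dimerization of HCV core protein measured by TR-FRET between tagged core106 pairs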
[5] = target: Eukaryotic translation initiation factor 4E (Mus musculus, UniProt P63073); assay: blockers of eIF4G binding by eIF4E – biochemical, TR-FRET, dose response (AID 855); format: functional;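 also: potency for disrupting eIF4E binding to eIF4GI seen as loss of FRET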
Estrogen receptor beta [6] = target: T1, Estrogen receptor beta (Homo sapiens, UniProt Q92731);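 also: recombinant ER-beta bound to coactivator SRC1 peptide in presence of estradiol agonist; inhibitors block coactivator peptide binding and lower the FRET signal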
Estrogen receptor = target: T2, Estrogen receptor (Homo sapiens, UniProt P03372);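 also: potency for inhibiting coactivator peptide recruitment to the receptor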
T2 sequence (P03372 whole entry): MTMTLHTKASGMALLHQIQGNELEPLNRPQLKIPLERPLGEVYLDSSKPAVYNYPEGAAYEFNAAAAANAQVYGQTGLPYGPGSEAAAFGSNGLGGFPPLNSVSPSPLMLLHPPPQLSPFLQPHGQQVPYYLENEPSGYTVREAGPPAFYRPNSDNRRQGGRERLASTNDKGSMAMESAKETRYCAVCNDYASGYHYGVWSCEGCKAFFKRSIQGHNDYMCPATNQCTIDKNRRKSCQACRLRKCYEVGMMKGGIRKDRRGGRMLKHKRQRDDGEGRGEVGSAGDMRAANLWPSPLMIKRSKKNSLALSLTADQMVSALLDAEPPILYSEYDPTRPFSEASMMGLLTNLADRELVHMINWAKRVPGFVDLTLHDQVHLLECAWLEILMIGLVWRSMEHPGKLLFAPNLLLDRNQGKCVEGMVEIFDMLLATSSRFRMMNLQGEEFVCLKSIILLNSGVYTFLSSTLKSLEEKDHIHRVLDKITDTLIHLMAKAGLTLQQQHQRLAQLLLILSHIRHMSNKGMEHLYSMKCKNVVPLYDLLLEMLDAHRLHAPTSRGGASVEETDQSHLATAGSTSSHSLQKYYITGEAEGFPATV

Estrogen receptor beta [7] = target: T1, Estrogen receptor beta; assay: blockers of SRC-3 recruitment to ERβ – biochemical, ELISA, streptavidin-HRP readout, orthogonal assay, confirmation (AID 1060)
[8] = target: T3, Carboxy-terminal domain RNA polymerase II polypeptide A small phosphatase 1 (Homo sapiens, UniProt Q9GZU7); assay: CTDSP1 inhibitors, concentration-response, biochemical, absorbance readout, ultra-high-throughput screen actives (AID 540297); format: functional
T3 sequence (Q9GZU7 whole entry): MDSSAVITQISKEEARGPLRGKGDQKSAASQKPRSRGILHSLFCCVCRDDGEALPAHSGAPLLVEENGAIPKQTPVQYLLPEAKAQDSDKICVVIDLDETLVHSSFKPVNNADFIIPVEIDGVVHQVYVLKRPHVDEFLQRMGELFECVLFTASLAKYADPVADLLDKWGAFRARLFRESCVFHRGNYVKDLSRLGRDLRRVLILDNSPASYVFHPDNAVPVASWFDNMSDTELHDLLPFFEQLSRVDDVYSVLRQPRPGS

[9] = target: T4, Dual specificity protein phosphatase 6 (Rattus norvegicus, UniProt Q64346); assay: inhibition of rat DUSP6 enzyme activity – biochemical, in vitro, primary screen (AID 425)
T4 sequence (Q64346 whole entry): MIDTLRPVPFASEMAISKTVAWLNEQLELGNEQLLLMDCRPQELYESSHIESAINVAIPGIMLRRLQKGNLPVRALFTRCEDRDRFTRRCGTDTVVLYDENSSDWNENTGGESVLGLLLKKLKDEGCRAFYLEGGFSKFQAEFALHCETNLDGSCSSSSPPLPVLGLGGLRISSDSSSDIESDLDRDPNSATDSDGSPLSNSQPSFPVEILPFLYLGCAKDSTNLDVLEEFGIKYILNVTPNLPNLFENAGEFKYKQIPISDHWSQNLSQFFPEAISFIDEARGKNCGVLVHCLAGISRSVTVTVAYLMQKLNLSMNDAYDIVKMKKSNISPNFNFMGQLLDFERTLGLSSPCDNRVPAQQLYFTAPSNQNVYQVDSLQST

Leucine aminopeptidase = target: T5, Leucine aminopeptidase (Plasmodium falciparum 3D7, UniProt Q8IL11); assay: P. falciparum M17LAP inhibitors, primary screen, biochemical, fluorogenic H-Leu-NHMec substrate, 1536-well (AID 1619); format: functional
T5 sequence (Q8IL11 whole entry): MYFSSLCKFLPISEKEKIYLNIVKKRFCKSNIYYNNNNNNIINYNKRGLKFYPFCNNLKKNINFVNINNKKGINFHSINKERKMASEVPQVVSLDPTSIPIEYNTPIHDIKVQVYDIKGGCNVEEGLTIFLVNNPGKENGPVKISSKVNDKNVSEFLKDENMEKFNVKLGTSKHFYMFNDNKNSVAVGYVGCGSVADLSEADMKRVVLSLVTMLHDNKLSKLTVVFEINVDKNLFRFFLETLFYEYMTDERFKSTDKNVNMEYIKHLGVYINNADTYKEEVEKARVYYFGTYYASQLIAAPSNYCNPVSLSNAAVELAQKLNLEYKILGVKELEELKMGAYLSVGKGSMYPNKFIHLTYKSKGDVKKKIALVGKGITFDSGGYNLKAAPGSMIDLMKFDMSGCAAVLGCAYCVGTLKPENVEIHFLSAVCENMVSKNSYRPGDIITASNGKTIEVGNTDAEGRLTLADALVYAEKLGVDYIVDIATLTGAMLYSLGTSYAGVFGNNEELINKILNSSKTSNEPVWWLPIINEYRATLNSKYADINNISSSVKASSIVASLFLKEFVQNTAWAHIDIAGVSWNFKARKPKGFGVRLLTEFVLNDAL

Cytochrome P450 2C19 = Cytochrome P450 2C19 (Homo sapiens, UniProt P33261); assay: Cytochrome panel assay with activity outcomes. Panel member name: p450-cyp2c19 Compounds with AC50 equal or less than 10 uM are considered active; format: functional; details: read-out: AC50
Procathepsin L = Procathepsin L (Homo sapiens, UniProt P07711); assay: CTSL1 protease inhibition – biochemical, QFRET, 1536-well, counter-screen for M1/M17 aminopeptidase inhibitor project, dose response (AID 2214)
Cytochrome P450 2C9 = Cytochrome P450 2C9 (Homo sapiens, UniProt P11712)
Aspartyl aminopeptidase = Aspartyl aminopeptidase (Plasmodium falciparum 3D7, UniProt Q8I2J3); assay: Counterscreen for inhibitors of M1 and M17 aminopeptidases: QFRET-based biochemical high throughput dose response assay for inhibitors of the Plasmodium falciparum M18 Aspartyl Aminopeptidase (PFM18AAP). [Related PubChem assays: 1619 (Screening assay (M17LAP inhibitors).), 1445 (Screening assay (M1AAP inhibitors).)]
Vero [10] = assay: mammalian cell viability reduction – secondary assay, cytotoxicity control for West Nile virus antiviral project, dose response (AID 1650); format: functional; details: Chlorocebus sabaeus
Vero [11] = assay: inhibition of WNV-induced cytopathic effect – cell-based, CPE readout (AID 1621); format: functional; details: Chlorocebus sabaeus
[12] = target: T6, Type-1 angiotensin II receptor (Homo sapiens, UniProt P30556); assay: antagonism of angiotensin II type 1 receptor – cell-based, uHTS hits, selectivity assay for APJ receptor antagonist project, dose response (AID 463214); format: functional;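 also: antagonist potency against angiotensin II stimulated AT1 response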
T6 sequence (P30556 whole entry): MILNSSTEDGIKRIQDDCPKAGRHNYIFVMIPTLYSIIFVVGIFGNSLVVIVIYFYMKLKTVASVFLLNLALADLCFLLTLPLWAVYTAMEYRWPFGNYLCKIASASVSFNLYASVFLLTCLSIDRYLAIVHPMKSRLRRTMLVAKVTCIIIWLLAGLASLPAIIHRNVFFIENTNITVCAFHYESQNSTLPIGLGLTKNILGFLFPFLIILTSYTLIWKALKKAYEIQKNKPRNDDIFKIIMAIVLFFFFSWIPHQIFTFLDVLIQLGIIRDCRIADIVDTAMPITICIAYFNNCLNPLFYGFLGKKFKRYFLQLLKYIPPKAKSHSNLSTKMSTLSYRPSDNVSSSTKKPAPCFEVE

[13] = target: Protein-tyrosine kinase 2-beta (Homo sapiens, UniProt Q14289);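 also: potency of inhibitors of PYK2 kinase phosphorylation of poly-GT substrate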
Beta-galactosidase = Beta-galactosidase (Escherichia coli, UniProt Q8VNN2); assay: PubChem AID 485352; format: functional
Chain of Beta-galactosidase (Q8VNN2 whole entry): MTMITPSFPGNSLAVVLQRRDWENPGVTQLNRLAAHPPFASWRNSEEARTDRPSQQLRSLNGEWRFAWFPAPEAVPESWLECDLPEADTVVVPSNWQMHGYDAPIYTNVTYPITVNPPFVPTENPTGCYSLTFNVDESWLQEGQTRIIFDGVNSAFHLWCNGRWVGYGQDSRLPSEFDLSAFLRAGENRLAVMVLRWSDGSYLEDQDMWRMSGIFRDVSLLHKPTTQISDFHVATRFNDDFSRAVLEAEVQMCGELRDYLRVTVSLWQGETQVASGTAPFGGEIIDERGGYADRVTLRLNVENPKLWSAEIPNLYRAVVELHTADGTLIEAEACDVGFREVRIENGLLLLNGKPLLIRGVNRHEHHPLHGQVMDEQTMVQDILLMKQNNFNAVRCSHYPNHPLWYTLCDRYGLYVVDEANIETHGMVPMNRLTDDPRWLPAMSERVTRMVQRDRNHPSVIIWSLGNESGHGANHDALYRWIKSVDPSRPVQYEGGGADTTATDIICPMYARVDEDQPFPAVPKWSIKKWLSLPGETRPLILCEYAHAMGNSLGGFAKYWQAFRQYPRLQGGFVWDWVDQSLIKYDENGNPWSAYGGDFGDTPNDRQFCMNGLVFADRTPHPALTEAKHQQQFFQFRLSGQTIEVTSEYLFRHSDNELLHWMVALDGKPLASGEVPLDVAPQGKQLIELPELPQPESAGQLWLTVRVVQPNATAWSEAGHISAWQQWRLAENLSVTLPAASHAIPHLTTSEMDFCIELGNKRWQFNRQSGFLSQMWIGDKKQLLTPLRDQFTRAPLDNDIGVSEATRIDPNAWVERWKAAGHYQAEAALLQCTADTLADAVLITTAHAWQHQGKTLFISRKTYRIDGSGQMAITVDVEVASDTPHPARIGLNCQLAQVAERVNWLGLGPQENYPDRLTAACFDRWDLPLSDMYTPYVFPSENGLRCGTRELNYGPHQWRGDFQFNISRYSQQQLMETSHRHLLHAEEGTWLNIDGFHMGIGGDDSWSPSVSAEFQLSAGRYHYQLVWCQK

T1 sequence (Q92731 whole entry): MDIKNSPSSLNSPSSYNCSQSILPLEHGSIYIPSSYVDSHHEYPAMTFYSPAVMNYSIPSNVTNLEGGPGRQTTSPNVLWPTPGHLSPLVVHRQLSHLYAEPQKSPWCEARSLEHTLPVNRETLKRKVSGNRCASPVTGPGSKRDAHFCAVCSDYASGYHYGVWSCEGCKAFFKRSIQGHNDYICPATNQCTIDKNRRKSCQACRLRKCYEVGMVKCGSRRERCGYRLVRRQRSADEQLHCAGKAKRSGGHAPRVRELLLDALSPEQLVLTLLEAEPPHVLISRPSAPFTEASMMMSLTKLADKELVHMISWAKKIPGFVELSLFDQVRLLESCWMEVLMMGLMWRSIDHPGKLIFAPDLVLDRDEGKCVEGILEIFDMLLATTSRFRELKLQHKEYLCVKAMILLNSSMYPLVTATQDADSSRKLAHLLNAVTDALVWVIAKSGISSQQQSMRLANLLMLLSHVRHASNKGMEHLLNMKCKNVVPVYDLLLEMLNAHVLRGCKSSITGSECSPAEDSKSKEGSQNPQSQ
Chain of Cytochrome P450 2C9 (P11712 whole entry): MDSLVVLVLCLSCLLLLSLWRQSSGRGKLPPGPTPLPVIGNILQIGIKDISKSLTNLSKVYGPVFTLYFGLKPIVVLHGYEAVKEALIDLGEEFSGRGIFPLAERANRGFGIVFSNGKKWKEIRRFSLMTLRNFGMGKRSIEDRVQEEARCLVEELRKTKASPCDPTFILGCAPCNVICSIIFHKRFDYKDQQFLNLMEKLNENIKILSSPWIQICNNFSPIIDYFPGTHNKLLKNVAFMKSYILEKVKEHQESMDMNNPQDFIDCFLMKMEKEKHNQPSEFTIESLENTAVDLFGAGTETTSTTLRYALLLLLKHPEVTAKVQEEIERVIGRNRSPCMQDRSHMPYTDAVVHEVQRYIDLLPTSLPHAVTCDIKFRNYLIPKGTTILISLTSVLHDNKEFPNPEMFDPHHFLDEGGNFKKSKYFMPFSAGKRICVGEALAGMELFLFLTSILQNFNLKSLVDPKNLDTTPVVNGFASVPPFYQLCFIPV
Chain of Lytic switch protein BZLF1 (P03206 whole entry): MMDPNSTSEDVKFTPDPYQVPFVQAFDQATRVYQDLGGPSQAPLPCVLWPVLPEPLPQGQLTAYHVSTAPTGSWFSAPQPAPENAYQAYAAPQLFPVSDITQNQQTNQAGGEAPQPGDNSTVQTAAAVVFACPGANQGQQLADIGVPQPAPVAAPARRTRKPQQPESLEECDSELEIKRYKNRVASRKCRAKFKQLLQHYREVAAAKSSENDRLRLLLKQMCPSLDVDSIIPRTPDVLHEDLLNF
Chain of Genome polyprotein (Q2Q167 whole entry): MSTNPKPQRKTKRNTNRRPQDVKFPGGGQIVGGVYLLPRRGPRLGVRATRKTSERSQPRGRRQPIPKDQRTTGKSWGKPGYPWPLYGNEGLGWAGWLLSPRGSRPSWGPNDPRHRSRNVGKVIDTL
Chain of Ubiquitin carboxyl-terminal hydrolase BAP1 (Q92560 whole entry): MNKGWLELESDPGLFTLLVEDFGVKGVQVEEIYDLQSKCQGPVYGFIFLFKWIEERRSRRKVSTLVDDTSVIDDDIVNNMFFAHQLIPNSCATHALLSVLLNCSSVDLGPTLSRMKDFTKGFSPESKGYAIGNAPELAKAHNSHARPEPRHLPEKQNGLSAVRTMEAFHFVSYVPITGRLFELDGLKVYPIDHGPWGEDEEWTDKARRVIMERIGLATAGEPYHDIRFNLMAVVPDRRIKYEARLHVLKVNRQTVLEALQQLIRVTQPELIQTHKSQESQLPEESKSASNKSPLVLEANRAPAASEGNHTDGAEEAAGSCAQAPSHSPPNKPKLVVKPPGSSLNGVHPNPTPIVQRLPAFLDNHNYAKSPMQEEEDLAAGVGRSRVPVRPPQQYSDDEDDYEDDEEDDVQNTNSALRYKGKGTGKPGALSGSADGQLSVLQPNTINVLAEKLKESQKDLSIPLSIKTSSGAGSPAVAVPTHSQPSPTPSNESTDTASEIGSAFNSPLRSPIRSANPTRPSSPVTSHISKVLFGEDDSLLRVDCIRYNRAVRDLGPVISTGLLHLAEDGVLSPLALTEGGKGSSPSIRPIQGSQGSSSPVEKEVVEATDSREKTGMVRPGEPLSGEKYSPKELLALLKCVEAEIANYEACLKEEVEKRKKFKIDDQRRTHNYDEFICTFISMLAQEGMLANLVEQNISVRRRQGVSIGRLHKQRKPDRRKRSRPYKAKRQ
Chain of Eukaryotic translation initiation factor 4E (P63073 whole entry): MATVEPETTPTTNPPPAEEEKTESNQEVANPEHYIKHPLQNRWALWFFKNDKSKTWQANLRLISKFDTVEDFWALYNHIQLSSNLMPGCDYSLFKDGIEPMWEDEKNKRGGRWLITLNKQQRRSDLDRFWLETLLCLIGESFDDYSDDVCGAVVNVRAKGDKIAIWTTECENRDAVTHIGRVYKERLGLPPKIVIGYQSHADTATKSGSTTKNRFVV
Chain of Procathepsin L (P07711 whole entry): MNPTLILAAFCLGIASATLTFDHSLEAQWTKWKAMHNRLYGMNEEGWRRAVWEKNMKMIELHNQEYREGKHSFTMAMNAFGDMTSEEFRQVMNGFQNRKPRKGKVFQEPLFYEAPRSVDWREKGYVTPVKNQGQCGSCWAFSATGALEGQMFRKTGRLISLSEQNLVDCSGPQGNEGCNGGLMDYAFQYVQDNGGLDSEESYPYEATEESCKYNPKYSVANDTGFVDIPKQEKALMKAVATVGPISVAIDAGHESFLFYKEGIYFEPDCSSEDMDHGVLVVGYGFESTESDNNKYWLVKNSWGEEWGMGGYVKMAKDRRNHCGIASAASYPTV
Chain of Cytochrome P450 2C19 (P33261 whole entry): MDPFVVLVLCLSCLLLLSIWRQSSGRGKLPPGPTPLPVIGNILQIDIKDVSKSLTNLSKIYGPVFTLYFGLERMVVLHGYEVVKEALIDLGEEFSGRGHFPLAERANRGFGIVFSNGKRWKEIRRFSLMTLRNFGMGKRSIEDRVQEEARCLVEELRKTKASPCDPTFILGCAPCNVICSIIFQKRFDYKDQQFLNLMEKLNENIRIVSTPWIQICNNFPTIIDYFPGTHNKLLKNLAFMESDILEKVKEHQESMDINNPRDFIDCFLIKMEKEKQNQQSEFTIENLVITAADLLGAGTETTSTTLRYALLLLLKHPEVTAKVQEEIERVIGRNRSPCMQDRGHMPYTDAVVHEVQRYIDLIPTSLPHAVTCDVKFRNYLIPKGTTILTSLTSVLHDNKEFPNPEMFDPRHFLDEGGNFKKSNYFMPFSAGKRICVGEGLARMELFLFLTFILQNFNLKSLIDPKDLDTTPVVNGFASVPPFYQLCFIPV
Chain of Epstein-Barr nuclear antigen 1 (P03211 whole entry): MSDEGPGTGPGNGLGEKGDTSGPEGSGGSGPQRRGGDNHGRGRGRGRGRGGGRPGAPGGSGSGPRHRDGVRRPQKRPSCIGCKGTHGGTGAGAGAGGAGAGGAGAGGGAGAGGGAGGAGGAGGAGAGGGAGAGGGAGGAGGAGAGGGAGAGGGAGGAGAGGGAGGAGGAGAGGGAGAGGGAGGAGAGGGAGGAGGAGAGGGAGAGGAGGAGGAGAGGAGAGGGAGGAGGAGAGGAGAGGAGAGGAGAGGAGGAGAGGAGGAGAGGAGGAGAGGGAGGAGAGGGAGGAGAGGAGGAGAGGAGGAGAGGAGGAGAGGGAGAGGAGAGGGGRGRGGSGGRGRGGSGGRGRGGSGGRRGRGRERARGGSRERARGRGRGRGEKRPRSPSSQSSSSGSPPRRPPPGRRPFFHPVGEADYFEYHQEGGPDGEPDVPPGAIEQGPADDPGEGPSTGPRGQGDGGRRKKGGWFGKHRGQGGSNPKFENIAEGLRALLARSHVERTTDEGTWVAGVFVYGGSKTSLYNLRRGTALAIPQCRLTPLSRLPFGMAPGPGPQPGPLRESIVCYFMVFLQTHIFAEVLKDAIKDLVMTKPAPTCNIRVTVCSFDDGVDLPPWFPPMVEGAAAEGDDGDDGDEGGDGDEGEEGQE

SMILES: CC(=O)N1CCN(c2ccccc2NC(=O)COc2cc(C)ccc2C(C)C)CC1
EC50 [1]: 3.67 µM (active)
IC50 [2]: 36.7 µM (not active)

SMILES: Cc1ccc(NC(=O)CSc2ccc(-c3ccccn3)nn2)cc1F
IC50 [3]: > 111 µM (not active)
IC50 [4]: > 16.4 µM (not active)

SMILES: O=C1Nc2ccccc2SC(c2ccccc2)C1O (stereo unspecified)
IC50 (Genome polyprotein): > 49.8 µM (not active)
IC50 [5]: 35.4 µM (inactive)
IC50 (Estrogen receptor beta [6]): < 1.56 µM (active)
IC50 (Estrogen receptor): 3.02 µM (active)
IC50 (Estrogen receptor beta [7]): 0.161 µM (not active)
IC50 [8]: 5.33 µM (active)
IC50 [9]: > 10 µM (not active)

SMILES: COc1ccc(C2c3ccc4ccccc4c3Oc3ncn(CCCO)c(=N)c32)cc1OC (stereo unspecified)
CC50 (Vero [10]): 19.7 µM (active)
IC50 (Vero [11]): 21.5 µM (active)

Other lines, results leading:

IC50 (Leucine aminopeptidase): 4.8 µM (active)
AC50 (Cytochrome P450 2C19): 28.2 µM (inconclusive)
IC50 (Procathepsin L): > 59.6 µM (not active)
AC50 (Cytochrome P450 2C9): 25.1 µM (inconclusive)
IC50 (Aspartyl aminopeptidase): > 73.5 µM (not active)
SMILES: CCOC(=O)c1c(-c2ccc(C)cc2)csc1NC(=O)C1CC=CCC1C(=O)O (stereo unspecified)

IC50 [12]: > 40 µM (not active)
IC50 [13]: > 69.5 µM (not active)
EC50 (Beta-galactosidase): > 40 µM (inactive)
SMILES: CCOCCO/C(O)=C1\C(C)=NC2=C(C(=O)CC(c3cccs3)C2)C1c1ccsc1 (stereo unspecified)
